From ChEMBL document CHEMBL1201862, “PubChem BioAssay data set” (2004)
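96-well plates; 48 h exposure; 5 concentrations. Endpoints by linear interpolation between flanking doses. Not reached: highest tested concentration assigned. GI50 = concentration required for 50% inhibition of growth.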 Calls of active or inactive are those of the source. Rule as the data show it: active = GI50 up to about 1.1 µM and inactive = higher. Positions of bridges follow the written chain, without caps; N, C: chain ends. Residues, ends and D or L forms follow the SMILES beside them.

Key:
Experiment in all cases: NCI tumour cell line growth inhibition, 48 h
[1] = test system: 786-0
[2] = test system: A498
[3] = test system: A549
[4] = test system: ACHN
[5] = test system: BT-549
[6] = test system: CAKI-1
[7] = test system: DU-145
[8] = test system: EKVX
[9] = test system: HCC 2998
[10] = test system: HCT-116
[11] = test system: HCT-15
[12] = test system: HOP-62
[13] = test system: HOP-92
[14] = test system: HT-29
[15] = test system: Hs-578T
[16] = test system: IGROV-1
[17] = test system: K562
[18] = test system: KM12
[19] = test system: LOX IMVI
[20] = test system: M14
[21] = test system: MCF7
[22] = test system: MDA-MB-231
[23] = test system: MDA-MB-435
[24] = test system: MDA-N
[25] = test system: MOLT-4
[26] = test system: Malme-3M
[27] = test system: NCI-H226
[28] = test system: NCI-H23
[29] = test system: NCI-H460
[30] = test system: NCI-H522
[31] = test system: NCI/ADR-RES
[32] = test system: OVCAR-3
[33] = test system: OVCAR-4
[34] = test system: OVCAR-5
[35] = test system: OVCAR-8
[36] = test system: PC-3
[37] = test system: RPMI-8226
[38] = test system: SF-268
[39] = test system: SF-295
[40] = test system: SF-539
[41] = test system: SK-MEL-28
[42] = test system: SK-MEL-2
[43] = test system: SK-MEL-5
[44] = test system: SK-OV-3
[45] = test system: SN12C
[46] = test system: SNB-19
[47] = test system: SNB-75
[48] = test system: SW-620
[49] = test system: T47D
[50] = test system: TK-10
[51] = test system: U-251
[52] = test system: UACC-257
[53] = test system: UACC-62
[54] = test system: UO-31
[55] = test system: CCRF-CEM
[56] = test system: COLO 205
[57] = test system: HL-60
[58] = test system: SR

Cc1oc2c(c1C)S(=O)(=O)C(C#N)=C(N(C)C)N2
GI50 [1]: > 100 µM (inactive)
GI50 [2]: > 100 µM (inactive)
GI50 [3]: > 100 µM (inactive)
GI50 [4]: > 100 µM (inactive)
GI50 [5]: > 100 µM (inactive)
GI50 [6]: > 100 µM (inactive)
GI50 [7]: > 100 µM (inactive)
GI50 [8]: > 100 µM (inactive)
GI50 [9]: > 100 µM (inactive)
GI50 [10]: > 100 µM (inactive)
GI50 [11]: > 100000 nM
GI50 [12]: > 100 µM (inactive)
GI50 [13]: > 100 µM (inactive)
GI50 [14]: > 100 µM (inactive)
GI50 [15]: > 100 µM (inactive)
GI50 [16]: > 100 µM (inactive)
GI50 [17]: > 100 µM (inactive)
GI50 [18]: > 100 µM (inactive)
GI50 [19]: > 100 µM (inactive)
GI50 [20]: > 100 µM (inactive)
GI50 [21]: > 100 µM (inactive)
GI50 [22]: > 100 µM (inactive)
GI50 [23]: > 100 µM (inactive)
GI50 [24]: > 100 µM (inactive)
GI50 [25]: > 100 µM (inactive)
GI50 [26]: > 100 µM (inactive)
GI50 [27]: > 100 µM (inactive)
GI50 [28]: > 100 µM (inactive)
GI50 [29]: > 100 µM (inactive)
GI50 [30]: > 100 µM (inactive)
GI50 [31]: > 100 µM (inactive)
GI50 [32]: > 100 µM (inactive)
GI50 [33]: > 100 µM (inactive)
GI50 [34]: > 100 µM (inactive)
GI50 [35]: > 100 µM (inactive)
GI50 [36]: > 100 µM (inactive)
GI50 [37]: > 100 µM (inactive)
GI50 [38]: > 100 µM (inactive)
GI50 [39]: > 100 µM (inactive)
GI50 [40]: > 100 µM (inactive)
GI50 [41]: > 100 µM (inactive)
GI50 [42]: > 100 µM (inactive)
GI50 [43]: > 100 µM (inactive)
GI50 [44]: > 100 µM (inactive)
GI50 [45]: > 100 µM (inactive)
GI50 [46]: > 100 µM (inactive)
GI50 [47]: > 100 µM (inactive)
GI50 [48]: > 100 µM (inactive)
GI50 [49]: > 100 µM (inactive)
GI50 [50]: > 100 µM (inactive)
GI50 [51]: > 100 µM (inactive)
GI50 [52]: > 100 µM (inactive)
GI50 [53]: > 100 µM (inactive)
GI50 [54]: > 100 µM (inactive)

CCC(C)C1NC(=O)C(CC(C)C)NC(=O)C(C(C)C)NC(=O)C2CSSCC(NC1=O)C(=O)N2 (configuration not stated) (cyclo(CCVLI); disulfide 1-2; configuration not given here)
GI50 [1]: 0.157 µM (active)
GI50 [3]: 0.177 µM (active)
GI50 [4]: 0.458 µM (active)
GI50 [5]: 0.198 µM (active)
GI50 [6]: 1.74 µM (inactive)
GI50 [55]: 22.8 nM (active)
GI50 [56]: 99.1 nM (active)
GI50 [7]: 0.156 µM (active)
GI50 [8]: 0.15 µM (active)
GI50 [9]: 0.082 µM (active)
GI50 [10]: 0.0498 µM (active)
GI50 [11]: 1860 nM
GI50 [57]: 155 nM (active)
GI50 [12]: 0.186 µM (active)
GI50 [13]: 0.121 µM (active)
GI50 [14]: 0.177 µM (active)
GI50 [15]: 0.043 µM (active)
GI50 [16]: 0.165 µM (active)
GI50 [18]: 0.0507 µM (active)
GI50 [19]: 0.0573 µM (active)
GI50 [20]: 0.277 µM (active)
GI50 [21]: 0.0318 µM (active)
GI50 [22]: 0.103 µM (active)
GI50 [23]: 0.194 µM (active)
GI50 [24]: 0.184 µM (active)
GI50 [25]: 0.0165 µM (active)
GI50 [28]: 0.138 µM (active)
GI50 [29]: 0.116 µM (active)
GI50 [30]: 0.142 µM (active)
GI50 [31]: 2.55 µM (inactive)
GI50 [32]: 0.187 µM (active)
GI50 [33]: 0.18 µM (active)
GI50 [34]: 0.16 µM (active)
GI50 [35]: 0.194 µM (active)
GI50 [36]: 0.147 µM (active)
GI50 [37]: 0.0262 µM (active)
GI50 [38]: 0.0387 µM (active)
GI50 [39]: 0.182 µM (active)
GI50 [40]: 0.144 µM (active)
GI50 [41]: 0.122 µM (active)
GI50 [42]: 0.142 µM (active)
GI50 [43]: 0.153 µM (active)
GI50 [45]: 0.192 µM (active)
GI50 [46]: 0.166 µM (active)
GI50 [47]: 0.112 µM (active)
GI50 [58]: 178 nM (active)
GI50 [48]: 0.16 µM (active)
GI50 [49]: 0.0305 µM (active)
GI50 [50]: 0.687 µM (active)
GI50 [51]: 0.0385 µM (active)
GI50 [52]: 0.141 µM (active)
GI50 [53]: 0.0904 µM (active)
GI50 [54]: 2.16 µM (inactive)
